Here are results for 49 compounds from patent US9546153B2, “Bicyclic heterocycle substituted pyridyl compounds useful as kinase modulators” (BRISTOL-MYERS SQUIBB COMPANY, priority 2012, dated 2017).

Read-outs that look alike come from different tables or passages of the source.

The target in test [1] is IRAK4 (Homo sapiens (Human), UniProt Q9NWZ3). Briefly: IRAK4 Inhibition Assay. The following applies: ATP 500 μM; IRAK4 0.6 nM; 60 min at room temperature. It is filed as biochemical. The procedure:
The assays were performed in U-bottom 384-well plates. […] The reaction was initiated by the combination of IRAK4 with substrates and test compounds. The reaction was incubated at room temperature for 60 min. and terminated by adding 45 μL of 35 mM EDTA to each sample. The reaction mixture was analyzed on the Caliper LABCHIP® 3000 (Caliper, Hopkinton, Mass.) by electrophoretic separation of the fluorescent substrate and phosphorylated product.

The test system of test [2] is TLR2 induced IL-6 in peripheral blood mononuclear cells (PBMCs). Briefly: PBMC TLR2 Induced IL-6 Assay. It is filed as cell-based, human. The following applies: human PBMCs, 10 μg/ml lipoteichoic acid for 5 hours, IL-6 by ELISA, value without asterisk, read-out: Cell IC50. On the procedure:
Peripheral blood mononuclear cells (PBMCs) were isolated from human blood containing the anti-coagulant EDTA (2.5 mM) by centrifugation over a FICOLL® gradient. PBMCs (250000 cells/well) were cultured in assay media (RPMI with 10% heat inactivated FCS) with compounds for 30 minutes at 37° C. in a 5% CO2 incubator. Following pretreatment with compounds, cells were stimulated for 5 hours with 10 μg/ml lipoteichoic acid (Invivogen, San Diego, Calif.), a TLR2 agonist. At the end of the culture, plates were centrifuged at 1800 rpm for 10 minutes to pellet the cells. Supernatants were harvested and analyzed for IL-6 levels by ELISA (BD Biosciences, San Jose, Calif.). Inhibition was calculated as either an IC50 or EC50. EC50 determinations are indicated with an asterisk.
For orientation: ELISA stands for enzyme-linked immunosorbent assay.

IRAK4, sequence (Q9NWZ3 whole entry, species assumed): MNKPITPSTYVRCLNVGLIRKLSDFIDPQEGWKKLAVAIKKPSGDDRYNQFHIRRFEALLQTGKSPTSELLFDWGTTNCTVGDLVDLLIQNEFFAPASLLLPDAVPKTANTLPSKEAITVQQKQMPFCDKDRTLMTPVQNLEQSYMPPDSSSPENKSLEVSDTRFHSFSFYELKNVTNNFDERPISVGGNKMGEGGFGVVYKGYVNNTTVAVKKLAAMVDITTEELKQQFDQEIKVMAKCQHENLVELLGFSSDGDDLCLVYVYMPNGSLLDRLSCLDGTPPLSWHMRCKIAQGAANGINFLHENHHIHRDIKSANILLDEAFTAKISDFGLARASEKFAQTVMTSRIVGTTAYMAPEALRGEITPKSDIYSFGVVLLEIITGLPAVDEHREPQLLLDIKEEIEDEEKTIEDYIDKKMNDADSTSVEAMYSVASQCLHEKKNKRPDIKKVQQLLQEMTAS

`CC(C)(O)[C@H](F)CNC(=O)c1cnc(Nc2ccc3nsnc3c2)cc1NC1CCCC1` [Example 36]: the IC50 in test [1] is 8.2 nM; in test [2] (Homo sapiens, PBMC, 5 h), 893 nM.
Take `CC(C)(O)[C@H](F)CNC(=O)c1cnc(Nc2ccc3ncsc3c2)cc1NC1CCC(O)C1` (some centres unmarked) [Example 37]: the IC50 in test [1] was determined as 3.9 nM; in test [2] (Homo sapiens, PBMC, 5 h) it was 297 nM.
Take `CC(C)(O)[C@H](F)CNC(=O)c1cnc(Nc2ccc3ncsc3c2)cc1NC1CCC(O)C1` (some centres unmarked) [Example 38]: the concentration for half-maximal inhibition (IC50) in test [1] was found to be 5.2 nM; in test [2] it was 426 nM.
As to `CC(CO)Nc1cc(Nc2ccc3ncsc3c2)ncc1C(=O)NC[C@@H](F)C(C)(C)O` (some centres unmarked) [Example 39], the IC50 in test [1] was 5.3 nM; in test [2] (Homo sapiens, PBMC, 5 h), 503 nM.
For `CC(C)Nc1cc(Nc2ccc3nsnc3c2)ncc1C(=O)NC[C@@H](F)C(C)(C)O` [Example 41] the same measures were 3.5 nM and 318 nM.
For `CC(C)(O)[C@H](F)CNC(=O)c1cnc(Nc2ccc3ncsc3c2)cc1NC1CC1` [Example 42], the IC50 in test [1] was 2.7 nM; in test [2] (Homo sapiens, PBMC, 5 h), 228 nM.
`CC(C)Nc1cc(Nc2ccc3nonc3c2)ncc1C(=O)NC[C@@H](F)C(C)(C)O` [Example 45]: the 50% inhibitory concentration (IC50) is 7.5 nM in test [1] and 887 nM in test [2] (Homo sapiens, PBMC, 5 h).
For `CC(C)Nc1cc(Nc2ccc3ncncc3c2)ncc1C(=O)NC[C@@H](F)C(C)(C)O` [Example 48] the same measures were 3.1 nM and 511 nM.
For `CC(C)(O)[C@H](F)CNC(=O)c1cnc(Nc2ccc3ncsc3c2)cc1N[C@@H](c1ccccc1)[C@H](O)CO` [Example 49] the same measures were 3.4 nM and 444 nM.
For `CC1(O)CCC(Nc2cc(Nc3ccc4ncsc4c3)ncc2C(=O)NC[C@@H](F)C(C)(C)O)C1` (some centres unmarked) [Example 50] the same measures were 6.8 nM and 571 nM.
`CC(C)(O)[C@H](F)CNC(=O)c1cnc(Nc2ccc3ncsc3c2)cc1Nc1ccc(OC(F)F)cc1` [Example 51]: the IC50 in test [1] amounted to 3.7 nM; in test [2] (Homo sapiens, PBMC, 5 h), 334 nM.
For `CC(C)(O)[C@H](F)CNC(=O)c1cnc(Nc2ccc3ncsc3c2)cc1NC1CCOCC1` [Example 52] the same measures were 2.7 nM and 116 nM.
For `CC(C)(O)[C@H](F)CNC(=O)c1cnc(Nc2ccc3ncsc3c2)cc1NC1CCCOC1` (some centres unmarked) [Example 53] the same measures were 5.4 nM and 230 nM.
For the compound `CC(C)(O)[C@H](F)CNC(=O)c1cnc(Nc2ccc3ncsc3c2)cc1NC1CCCOC1` (some centres unmarked) [Example 54], the half-inhibitory concentration (IC50) in test [1] came to 3.6 nM; in test [2], 258 nM.
As for `CC(C)Nc1cc(Nc2ccc3nccnc3c2)ncc1C(=O)NC[C@@H](F)C(C)(C)O` [Example 55], the IC50 worked out at 5.9 nM in test [1] and 349 nM in test [2] (Homo sapiens, PBMC, 5 h).
For `CC(C)(O)[C@H](F)CNC(=O)c1cnc(Nc2ccc3ncsc3c2)cc1Nc1cccc(CO)c1` [Example 57] the same measures were 5.2 nM and 314 nM.
Turning to `CC(C)(O)[C@H](F)CNC(=O)c1cnc(Nc2ccc3ncccc3c2)cc1NC1CC1` [Example 58], the IC50 in test [1] was found to be 7 nM; in test [2] (Homo sapiens, PBMC, 5 h) it was 545 nM.
As to `CC(C)(O)[C@H](F)CNC(=O)c1cnc(Nc2ccc3ncsc3c2)cc1Nc1cccc(CCO)c1` [Example 59], the IC50 in test [1] was 6 nM; in test [2] (Homo sapiens, PBMC, 5 h) it was 99 nM.
For `CC(C)(O)[C@H](F)CNC(=O)c1cnc(Nc2ccc3ncsc3c2)cc1N[C@H]1CC[C@H](N)CC1` [Example 61] the same measures were 7 nM and 257 nM.
Consider `CC(C)(O)[C@H](F)CNC(=O)c1cnc(Nc2ccc3ncsc3c2)cc1N[C@H](CO)c1ccccc1` [Example 63], for which the IC50 in test [1] came to 8.6 nM; in test [2] (Homo sapiens, PBMC, 5 h) it was 632 nM.
For `CC(C)(O)C1CC(Nc2cc(Nc3ccc4ncsc4c3)ncc2C(=O)NC[C@@H](F)C(C)(C)O)C1` (some centres unmarked) [Example 64] the same measures were 5.2 nM and 440 nM.
For `CC(C)(O)[C@H](F)CNC(=O)c1cnc(Nc2ccc3ncsc3c2)cc1N[C@@H](c1cc(F)cc(F)c1)[C@H](O)CO` [Example 65] the same measures were 3.9 nM and 170 nM.
With `CC(C)(O)[C@H](F)CNC(=O)c1cnc(Nc2ccc3ncsc3c2)cc1N[C@H]1CCC(CCO)C1` (some centres unmarked) [Example 66], the 50% inhibitory concentration (IC50) is 2.3 nM in test [1] and 58 nM in test [2].
With `CC(C)(O)[C@H](F)CNC(=O)c1cnc(Nc2ccc3ncsc3c2)cc1N[C@H]1CCC(CCO)C1` (some centres unmarked) [Example 67], the IC50 is 6.8 nM in test [1] and 248 nM in test [2].
In the case of `CC(C)(O)[C@H](F)CNC(=O)c1cnc(Nc2ccc3ncsc3c2)cc1N[C@H]1CCC(CCO)C1` (some centres unmarked) [Example 68], the IC50 in test [1] stood at 4.7 nM; in test [2] it was 231 nM.
Consider `CC(C)(O)[C@H](F)CNC(=O)c1cnc(Nc2ccc3ncsc3c2)cc1NC1CC(CO)C1` (some centres unmarked) [Example 69], for which the IC50 was found to be 3.4 nM in test [1] and 365 nM in test [2] (Homo sapiens, PBMC, 5 h).
For `CCOC(=O)C1CC(Nc2cc(Nc3ccc4ncsc4c3)ncc2C(=O)NC[C@@H](F)C(C)(C)O)C1` (some centres unmarked) [Example 70] the same measures were 8.7 nM and 530 nM.
`CC(C)(O)[C@H](F)CNC(=O)c1cnc(Nc2ccc3nccnc3c2)cc1NC1CCCOC1` (some centres unmarked) [Example 71]: the IC50 is 13.8 nM in test [1] and 415 nM in test [2] (Homo sapiens, PBMC, 5 h).
For `CC(C)(O)[C@H](F)CNC(=O)c1cnc(Nc2ccc3ncncc3c2)cc1NC1CCC1` [Example 73] the same measures were 2.7 nM and 327 nM.
For `CC(C)(O)[C@H](F)CNC(=O)c1cnc(Nc2ccc3nc(N)ccc3c2)cc1NC1CC1` [Example 75] the same measures were 18.9 nM and 710 nM.
For `CNC(=O)c1cc(F)c(Nc2cc(Nc3ccc4ncsc4c3)ncc2C(=O)NC[C@@H](F)C(C)(C)O)cc1F` [Example 78] the same measures were 8.6 nM and 282 nM.
Regarding `CC(C)(O)[C@H](F)CNC(=O)c1cnc(Nc2ccc3cnccc3n2)cc1NC1CC1` [Example 79], the IC50 amounted to 5.6 nM in test [1] and 48 nM in test [2] (Homo sapiens, PBMC, 5 h).
In the case of `CC(C)(O)[C@H](F)CNC(=O)c1cnc(Nc2ccc3nccnc3c2)cc1NC1CC1` [Example 82], the IC50 is 8 nM in test [1] and 366 nM in test [2] (Homo sapiens, PBMC, 5 h).
For `CC(C)(C)Nc1cc(Nc2ccc3ncsc3c2)ncc1C(=O)NC[C@@H](F)C(C)(C)O` [Example 83] the same measures were 11.5 nM and 133 nM.
For `CC(C)(O)[C@H](F)CNC(=O)c1cnc(Nc2ccc3nccn3n2)cc1NC1CC1` [Example 85] the same measures were 5.1 nM and 195 nM.
Consider `Cc1cc(O)ccc1Nc1cc(Nc2ccc3ncsc3c2)ncc1C(=O)NC[C@@H](F)C(C)(C)O` [Example 86], for which the IC50 was 11.4 nM in test [1] and 281 nM in test [2] (Homo sapiens, PBMC, 5 h).
For `CC(C)(O)[C@H](F)CNC(=O)c1cnc(Nc2ccc3ncsc3c2)cc1NC1CCCCCC1` [Example 87] the same measures were 5.3 nM and 271 nM.
For the compound `CC(C)(O)[C@H](F)CNC(=O)c1cnc(Nc2ccc3nccnc3c2)cc1NC1CCCCCC1` [Example 88], the IC50 in test [1] is 9 nM; in test [2] (Homo sapiens, PBMC, 5 h) it was 457 nM.
As for `CC(C)(O)[C@H](F)CNC(=O)c1cnc(Nc2ccc3ncsc3c2)cc1NC1CC2CCC1C2` (some centres unmarked) [Example 89], the half-inhibitory concentration (IC50) came out at 2.6 nM in test [1] and 32 nM in test [2] (Homo sapiens, PBMC, 5 h).
Turning to `CC(Nc1cc(Nc2ccc3ncsc3c2)ncc1C(=O)NC[C@@H](F)C(C)(C)O)C(F)(F)F` (some centres unmarked) [Example 91], the IC50 in test [1] was determined as 3.7 nM; in test [2] (Homo sapiens, PBMC, 5 h) it was 64 nM.
For `CC(C)(O)[C@H](F)CNC(=O)c1cnc(Nc2ccn3nccc3c2)cc1NC1CC1` [Example 92] the same measures were 4.8 nM and 177 nM.
For `CC(C)(O)[C@H](F)CNC(=O)c1cnc(Nc2ccc3ncsc3c2)cc1NCC1CCCO1` (some centres unmarked) [Example 93] the same measures were 16 nM and 619 nM.
For `CC(C)(O)[C@H](F)CNC(=O)c1cnc(Nc2ccc3ncsc3c2)cc1NCC1CCCO1` (some centres unmarked) [Example 94], the results for the half-inhibitory concentration (IC50) in test [1] and in test [2] were 13 nM and 339 nM, respectively.
Regarding `CC(C)(O)[C@H](F)CNC(=O)c1cnc(Nc2ccc3nccnc3c2)cc1NC1CC2CCC1C2` (some centres unmarked) [Example 95], the half-maximal inhibitory concentration (IC50) in test [1] was found to be 1.9 nM; in test [2] (Homo sapiens, PBMC, 5 h), 58 nM.
For `CCNc1cc(Nc2ccc3ncsc3c2)ncc1C(=O)NC[C@@H](F)C(C)(C)O` [Example 96] the same measures were 4.3 nM and 170 nM.
As for `CC(C)(O)[C@H](F)CNC(=O)c1cnc(Nc2ccc3nccnc3n2)cc1NC1CC1` [Example 97], the IC50 came out at 16.4 nM in test [1] and 302 nM in test [2] (Homo sapiens, PBMC, 5 h).
Consider `CC(C)(O)[C@H](F)CNC(=O)c1cnc(Nc2ccc3nonc3c2)cc1NC1CCC1` [Example 98], for which the IC50 stood at 7.2 nM in test [1] and 165 nM in test [2] (Homo sapiens, PBMC, 5 h).
For `CC(C)(O)[C@H](F)CNC(=O)c1cnc(Nc2ccc3nonc3c2)cc1NCC(F)(F)F` [Example 100] the same measures were 21.7 nM and 830 nM.
For `CC(C)(O)[C@H](F)CNC(=O)c1cnc(Nc2ccc3ncsc3c2)cc1NC(C1CC1)C1CC1` [Example 101] the same measures were 54.8 nM and 570 nM.

The IC50 is the point on the concentration scale where inhibition reaches its midpoint.
